Measurements taken from publication PMC10046862, “Screening of EWI-2-Derived Peptides for Targeting Tetraspanin CD81 and Their Effect on Cancer Cell Migration” (Biomolecules, 2023).
Entries after “also recorded” stand apart in the source; their conditions may differ.

How the values were obtained:
[1] = system: Recombinant CD81 human protein (LEL Phe113-Lys201); assay: Binding assay between EWI-2 peptide array and Alexa Fluor 488-labeled CD81 (screening); conditions: 500 nM labeled CD81, room temperature, 3 h, 3% BSA block; blank-subtracted; fluorescence scan; n = 3
Method: The peptide array was prepared similarly to the method described in previous reports. A peptide library of eight-residue peptides was obtained by overlapping four residues from Ig3 to the C-terminus of human EWI-2 (accession number: Q969P0) (Table S1). Next, the EWI-2 peptide array was synthesized on a Fmoc-β-Alanine-activated cellulose membrane using Fmoc-based chemistry. The synthesis cycle was initiated by deprotecting the N-terminal Fmoc group with 20% piperidine in DMF and then washing it with DMF and EtOH, respectively. […]
The Alexa Fluor™ 488 protein labeling kit (Thermo Fisher Scientific, Waltham, MA, USA) was applied to fluorescently label the CD81 protein. […] The concentration of the labeled CD81 protein solution was finally quantified using a Bradford protein assay kit (Takara Bio Inc., Shiga, Japan).
First, to reduce nonspecific interactions, the peptide array was blocked by 3% BSA in Tris–HCl buffer at room temperature for 15 min, followed by membrane washing with Tris–HCl buffer. […] Finally, the membrane was fluorescence-scanned and imaged by a biomolecular imager (Typhoon FLA 9500; GE Healthcare, Hatfield, UK), before the spot intensity of each peptide was measured using GE Healthcare’s ImageQuant TL 8.1 software.

[2] = system: MDA-MB-231 human breast cancer cells; assay: Boyden chamber assay (CytoSelect 96-well cell migration); format: cell-based; conditions: 100 nM, 37 °C, n = 3; for Migration of MDA-MB-231 cells vs non-treatment: 24 h (1 h pre-incubation), 5% CO2, CyQuant GR fluorescence, t-test p < 0.05; for Anti-migration activity, P152 vs scrambled peptides: t-test, comparison with scrambled P152-1 and P152-2 (Figure 5)
Method: A Boyden chamber assay was performed using the CytoSelect™ 96-well cell migration assay kit (8 µm, Fluorometric Format, Cat. No. CBA-106; Cell Biolabs, Inc., San Diego, CA, USA). Human breast cancer MDA-MB-231 cells (HTB-26TM; American Type Culture Collection, Manassas, VA, USA) were suspended in serum-free D-MEM medium (1.85 × 10^5 cells/mL) containing 100 nM CD81-BP, AAAA or CD81 antibody (5A6) at 37 °C and 5% CO2 for 1 h. Then, within the Boyden chamber, 100 µL of the serum-free cell suspension was added to the upper chamber, while 150 µL of 10% FBS-containing medium was placed in the lower chamber. After incubation at 37 °C and 5% CO2 for 24 h, the cells that migrated to the lower chamber were detached from the membrane by cell detachment buffer, lysed by lysis buffer, and stained with CyQuant® GR dye. The fluorescence intensity of the cell lysate was analyzed at 480/520 nm by a microplate reader (Biomedical Solutions, Inc., Stafford, TX, USA).
The experiment was performed with at least three replicates. The t-test was performed using Prism 9 (GraphPad Software, Inc., La Jolla, CA, USA) or Microsoft Excel (Microsoft, WA, USA) to analyze the statistical significance difference. The statistical significance was set at p-value < 0.05.

[3] = biological target: T1, Recombinant CD81 human protein, large extracellular loop (LEL, Phe113-Lys201), Alexa Fluor 488-labeled (human, UniProt P60033 113-201, Alexa Fluor 488 dye (succinimidyl ester labeling)); assay: peptide or protein array; candidate peptides and control AAAA on cellulose membrane, blocked with 3% BSA; Alexa488-labeled CD81 at 50 nM to 1 µM, room temperature, 3 h; AAAA-subtracted spot intensity fitted to the Hill equation; estimated KD; conditions: both partners purified
T1 construct: two additional amino acids (Gly and Pro) at the N-terminus of the LEL; CD81, human, large extracellular loop (LEL), Phe113-Lys201; also called CD81 protein; CD81 LEL; source: bought: Sino Biological (Cat. No. 14244-HNCH); labeled with the Alexa Fluor 488 protein labeling kit
T1 sequence: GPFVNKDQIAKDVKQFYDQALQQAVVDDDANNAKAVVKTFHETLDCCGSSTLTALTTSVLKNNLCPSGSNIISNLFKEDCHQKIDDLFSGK

## ASRTYRLR [Peptide P97]
[1]
  Spot fluorescence intensity on array (candidate selection): greater than the average (AVG) and two standard deviations (SD)
[2]
  Migration of MDA-MB-231 cells vs non-treatment: no distinct inhibition was observed

## FRKCKMRL [Peptide P152-1, scrambled peptide of P152 (FRKCKMRL)]
[2]; 24 h
  Anti-migration activity, P152 vs scrambled peptides: showed the impact on MDA-MB-23 cell migration as seemingly as the original P152; also recorded: only P152 origin showed statistical significance (p-value < 0.05)

## KKRCRFLM [Peptide P152-2, scrambled peptide of P152 (KKRCRFLM)]
[2]; 24 h
  Anti-migration activity, P152 vs scrambled peptides: only P152 origin showed statistical significance (p-value < 0.05)

## FMKRLRKR [Peptide P153, EWI-2-derived CD81-BP candidate, FMKRLRKR]
[1]
  Spot fluorescence intensity on array (candidate selection): greater than the average (AVG) and two standard deviations (SD)
[2]
  Migration of MDA-MB-231 cells vs non-treatment: could significantly reduce the migration of MDA-MB-231 cells
[2]; 24 h
  Inhibition of migration compared with anti-human CD81 antibody 5A6: comparable or competitive to an anti-CD81 monoclonal human antibody (5A6)

B1: P152 (CFMKRLRK), EWI-2-derived eight-residue peptide (peptide)
peptide: CFMKRLRK
modifications: synthesized on a Fmoc-β-Alanine-activated cellulose membrane
notes: eight-residue stretch of human EWI-2 (immunoglobulin superfamily member 8), near the C-terminus; For the migration assay the peptide was made as a free powder on Rink amide resin; also called CD81-BP candidate; source: synthetic peptide, spot-synthesized on cellulose membrane (peptide array)
[3]
  Kd: 0.91 µM

B2: P153 (FMKRLRKR), EWI-2-derived eight-residue peptide (peptide)
peptide: FMKRLRKR
modifications: synthesized on a Fmoc-β-Alanine-activated cellulose membrane
notes: last eight residues of human EWI-2 (immunoglobulin superfamily member 8); also called CD81-BP candidate; source: synthetic peptide, spot-synthesized on cellulose membrane (peptide array)
[3]
  Kd: 12.6 µM

B3: P132 (RSHRLRLH), EWI-2-derived eight-residue peptide (peptide)
peptide: RSHRLRLH
modifications: synthesized on a Fmoc-β-Alanine-activated cellulose membrane
notes: eight-residue stretch of human EWI-2 (immunoglobulin superfamily member 8), between the Ig3 domain and the C-terminus; also called CD81-BP candidate; source: synthetic peptide, spot-synthesized on cellulose membrane (peptide array)
[3]
  Kd: 1.63 µM

B4: P97 (ASRTYRLR), EWI-2-derived eight-residue peptide (peptide)
peptide: ASRTYRLR
modifications: synthesized on a Fmoc-β-Alanine-activated cellulose membrane
notes: eight-residue stretch of human EWI-2 (immunoglobulin superfamily member 8), between the Ig3 domain and the C-terminus; For the migration assay the peptide was made as a free powder on Rink amide resin; also called CD81-BP candidate; source: synthetic peptide, spot-synthesized on cellulose membrane (peptide array)
[3]
  Kd: 1.06 µM
